Test results reported in patent US20050256176A1, “Sulphonamide derivatives and their use as tace inhibitors” (priority 2002, published 2005).

Biological target: T1, proTNF-α convertase enzyme (TACE) (Homo sapiens, UniProt P78536)
T1 construct: a partially purified, isolated enzyme assay, the enzyme being obtained from the membranes of THP-1; endogenous in cells; host or cells: THP-1 cell membranes, partially purified as in Mohler et al. (1994) Nature 370:218-220
Experiment: Isolated enzyme assay, proTNF-α convertase (TACE), fluorescent peptide substrate
Assay type: biochemical
Details: partially purified enzyme from membranes of THP-1; 26° C. for 4 hours; read-out: concentration giving 50% inhibition of TACE
Procedure: Recombinant human proMMP13 may be expressed and purified as described by Knauper et al. [V. Knauper et al., (1996) […] 271:1544-1550 (1996)]. […] Activity is determined by measuring the fluorescence at λex 328 nm and λem 393 nm. Percent inhibition is calculated as follows: % Inhibition is equal to the [Fluorescenceplus inhibitor−Fluorescencebackground] divided by the [Fluorescenceminus inhibitor−Fluorescencebackground].
The ability of the compounds to inhibit proTNF-α convertase enzyme (TACE) may be assessed using a partially purified, isolated enzyme assay, the enzyme being obtained from the membranes of THP-1 as described by K. M. Mohler et al., (1994) Nature 370:218-220. The purified enzyme activity and inhibition thereof is determined by incubating the partially purified enzyme in the presence or absence of test compounds using the substrate 4′,5′-Dimethoxy-fluoresceinyl Ser.Pro.Leu.Ala.Gln.Ala.Val.Arg.Ser.Ser.Ser.Arg.Cys(4-(3-succinimid-1-yl)-fluorescein)-NH2 in assay buffer (50 mM Tris HCl, pH 7.4 containing 0.1% (w/v) Triton X-100 and 2 mM CaCl2), at 26° C. for 4 hours. The amount of inhibition is determined as for MMP13 except λex 485 nm and λem 538 nm were used. […]

T1 sequence (P78536 215-824): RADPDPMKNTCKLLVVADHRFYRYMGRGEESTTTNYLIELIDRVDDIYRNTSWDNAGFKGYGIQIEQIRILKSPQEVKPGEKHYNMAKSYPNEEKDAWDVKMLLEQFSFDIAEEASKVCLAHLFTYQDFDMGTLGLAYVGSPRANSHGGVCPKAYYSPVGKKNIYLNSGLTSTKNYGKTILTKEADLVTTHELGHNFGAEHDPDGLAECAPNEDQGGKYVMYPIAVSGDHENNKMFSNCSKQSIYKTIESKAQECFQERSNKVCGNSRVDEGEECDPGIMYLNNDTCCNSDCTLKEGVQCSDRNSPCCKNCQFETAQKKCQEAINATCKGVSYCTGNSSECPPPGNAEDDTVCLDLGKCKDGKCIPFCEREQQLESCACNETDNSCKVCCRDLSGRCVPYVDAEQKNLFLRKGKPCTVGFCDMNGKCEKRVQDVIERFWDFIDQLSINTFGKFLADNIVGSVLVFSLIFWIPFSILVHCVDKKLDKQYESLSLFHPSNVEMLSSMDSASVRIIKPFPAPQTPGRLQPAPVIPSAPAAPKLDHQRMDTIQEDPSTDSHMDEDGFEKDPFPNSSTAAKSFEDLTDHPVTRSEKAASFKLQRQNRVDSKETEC

Row | IC50 | Compound
1 | 71 nM | Cc1cc(COc2ccc(NS(=O)(=O)CC3(C)NC(=O)NC3=O)cc2)c2ccccc2n1 (centres unmarked) [Example 1A, 1-(4-methyl-2,5-dioxoimidazolidin-4-yl)-N-{4-[(2-methylquinolin-4-yl)methoxy]phenyl}methanesulphonamide]
2 | 37 nM | CCC1(CS(=O)(=O)Nc2ccc(OCc3cc(C)nc4ccccc34)cc2)NC(=O)NC1=O (centres unmarked) [Example 2A, 1-(4-ethyl-2,5-dioxoimidazolidin-4-yl)-N-{4-[(2-methylquinolin-4-yl)methoxy]phenyl}methanesulphonamide]
